Measurements from patent US9694073B2, “Small molecule inhibitors of polynucleotide kinase/phosphatase, poly(ADP-ribose) polymerase and uses thereof” (THE GOVERNORS OF THE UNIVERSITY OF ALBERTA, priority 2009, dated 2017).

Key:
[1] = target: T1, Schizosaccharomyces pombe PNKP (Schizosaccharomyces pombe, UniProt O13911); assay: PiColorLock 3'-phosphatase assay, fission yeast PNKP; assay type: biochemical; settings: read-out: inhibition of S. pombe PNKP
T1 construct: made in house
T1 sequence (O13911 1-408): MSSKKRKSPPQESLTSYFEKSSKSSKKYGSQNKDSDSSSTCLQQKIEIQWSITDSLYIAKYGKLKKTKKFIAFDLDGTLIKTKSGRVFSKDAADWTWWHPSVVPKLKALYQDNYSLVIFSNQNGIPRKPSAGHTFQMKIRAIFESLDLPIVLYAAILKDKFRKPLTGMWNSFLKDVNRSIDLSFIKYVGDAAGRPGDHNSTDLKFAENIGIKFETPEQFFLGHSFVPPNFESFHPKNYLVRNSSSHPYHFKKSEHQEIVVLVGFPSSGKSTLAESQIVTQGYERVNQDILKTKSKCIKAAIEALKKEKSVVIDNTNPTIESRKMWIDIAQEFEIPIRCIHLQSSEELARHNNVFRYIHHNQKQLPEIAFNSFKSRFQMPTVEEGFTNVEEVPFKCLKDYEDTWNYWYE
Excerpt: To determine the specificity of A12B4C3 for human PNKP phosphatase activity, a number of closely related phosphatases such as the PNKP enzymes isolated from bacteriophage T4, Schizosaccharomyces pombe and mouse, as well as aprataxin, were examined.

[2] = system: A549 cells; assay: Chemosensitization to camptothecin, clonogenic survival assay; assay type: cell-based, human; settings: 1 mM A12B4C3 2 hours before camptothecin, further 24 hours, wild type A549
Description: The effect of hPNKP inhibition by A12B4C3 on cellular survival following exposure to the topoisomerase I poison, camptothecin, was measured in A549 and A549δPNKP cells by the clonogenic survival assay (colony forming assay). Cells were seeded on 60-mm tissue culture plates at various concentrations to give between about 100-1000 colonies per plate and returned to the incubator overnight to allow the cells to attach. For chemosensitization studies, the cells were incubated with or without 1 mM A12B4C3 for 2 hours before addition of camptothecin and then exposed to increasing doses of camptothecin (Sigma). After addition of the topoisomerase I poison, cells were incubated for a further 24 hours in the same media and then washed twice with phosphate-buffered saline (PBS) and incubated in fresh media without the inhibitor. Colonies were stained with crystal violet after 10 to 14 days and counted with an automated Colcount colony counter (Oxford Optronix, Oxford, UK).
The capacity of A12B4C3 to act as a chemosensitizer was then examined. […] Colonies were stained with crystal violet after 10 to 14 days and counted with an automated Colcount colony counter (Oxford Optronix, Oxford, UK).

[3] = target: human PNKP phosphatase activity (Homo sapiens, UniProt Q96T60); assay: PiColorlock Gold assay for 3'-phosphatase activity (release of inorganic phosphate)

CCCCCCCCCCC(O)C1C=CC2C(=O)N(c3ccccc3)C(=O)C2N1Nc1ccc([N+](=O)[O-])cc1 (centres unmarked) [Compound A12B4C3, 2-(1-hydroxyundecyl)-1-(4-nitrophenylamino)-6-phenyl-6,7a-dihydro-1H-pyrrolo[3,4-b]pyridine-5,7(2H,4aH)-dione]
inhibition at 50 µM [1]: ~20% | chemosensitization to camptothecin [2]: effectively sensitized | concentration giving near maximal inhibition ([3]; PiColorLock Gold): 5 µM | potency rank among the five PNKP inhibitors ([3]; PiColorLock Gold, FIG. 4B): most potent | inhibition at 50 µM ([3]; read-out: inhibition of human PNKP): ~85%
